# Legend:
# [1] = molecular target: T1, ATP-sensitive inward rectifier potassium channel 1 (Homo sapiens) (UniProt P48048); assay: Inhibition of human Kir1.1 expressed in HEK293 cells by thallium flux assay; type: cell-based
# T1 sequence (whole entry): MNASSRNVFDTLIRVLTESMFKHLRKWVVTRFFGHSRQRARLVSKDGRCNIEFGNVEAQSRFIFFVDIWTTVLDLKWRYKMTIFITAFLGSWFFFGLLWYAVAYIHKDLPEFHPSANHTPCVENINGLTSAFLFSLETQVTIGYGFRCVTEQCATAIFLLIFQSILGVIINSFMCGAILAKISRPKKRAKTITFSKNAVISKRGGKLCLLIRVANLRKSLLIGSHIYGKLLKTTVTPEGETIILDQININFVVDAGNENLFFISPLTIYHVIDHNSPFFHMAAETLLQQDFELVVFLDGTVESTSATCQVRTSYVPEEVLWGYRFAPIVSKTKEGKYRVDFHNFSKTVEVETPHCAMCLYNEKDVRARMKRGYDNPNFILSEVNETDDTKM
# [2] = molecular target: T1, ATP-sensitive inward rectifier potassium channel 1 (Homo sapiens); assay: Inhibition of human Kir1.1 expressed in CHO cells by whole cell voltage clamp assay; type: cell-based
Compound,INH [1],INH [2]
Cc1c([C@H]2CN3CCN(C(=O)C4CCc5cc(-n6cnnn6)ncc54)C[C@H]3CN2)ccc(F)c1C#N (stereo not given in full),0.18 µM,0.1 µM
Cc1c([C@@H]2CN3CCN(C(=O)C4CCc5nc(-n6cnnn6)ccc54)C[C@H]3CO2)csc1C#N (stereo not given in full),0.54 µM,0.06 µM
N#Cc1c(F)ccc([C@@H]2CN3CCN(C(=O)C4CCc5cc(-n6cnnn6)ncc54)C[C@H]3CO2)c1F (stereo not given in full),0.16 µM,0.04 µM
N#Cc1c(F)ccc([C@@H]2CN3CCN(C(=O)C4CCc5nc(-n6cnnn6)ncc54)C[C@@H]3CO2)c1Cl (stereo not given in full),0.17 µM,0.06 µM
Cc1c([C@H]2CN3CCN(C(=O)C4CCc5nc(-n6cnnn6)ccc54)C[C@H]3CN2)ccc(F)c1C#N (stereo not given in full),0.16 µM,0.09 µM

# The remaining lines, values ahead:
INH [1],INH [2],Compound
0.11 µM,0.09 µM,O=C1OCc2cc([C@@H]3CN4CCN(C(=O)C5CCc6nc(-n7cnnn7)ccc65)C[C@H]4CO3)ccc21 (stereo not given in full)
–,0.06 µM,O=C1OCc2cc([C@H]3CN4CCN(C(=O)C5CCc6cc(-n7cnnn7)ncc65)C[C@H]4CO3)ccc21 (stereo not given in full)
0.14 µM,0.08 µM,Cc1c([C@@H]2CN3CCN(C(=O)C4CCc5nc(-n6cnnn6)ccc54)C[C@H]3CO2)ccc(F)c1C#N (stereo not given in full)
